Experimental data published in patent publication US20010047099A1, “4-aminopicolinates and their use as herbicides” (priority 2000, published 2001).

Legend:
Assay type in all cases: in vivo
[1] = system: cocklebur (Xanthium strumarium); test: Postemergence herbicidal activity; details: Table 1, visual, after 2 weeks
Experimental: (§1) Seeds of the desired test plant species were planted in Grace-Sierra MetroMix® 306 planting mixture, which typically has a pH of 6.0 to 6.8 and an organic matter content of about 30 percent, in plastic pots with a surface area of 64 square centimeters. When required to ensure good germination and healthy plants, a fungicide treatment and/or other chemical or physical treatment was applied. The plants were grown for 7-21 days in a greenhouse with an approximate 15 hr photoperiod which was maintained at about 23-29° C. during the day and 22-28° C. during the night. Nutrients and water were added on a regular basis and supplemental lighting was provided with overhead metal halide 1000-Watt lamps as necessary. The plants were employed for testing when they reached the first or second true leaf stage.
(§2) A weighed amount, determined by the highest rate to be tested, of each test compound was placed in a 20 mL glass vial and was dissolved in 4 mL of a 97:3 v/v (volume/volume) mixture of acetone and dimethyl sulfoxide (DMSO) to obtain concentrated stock solutions. […] The concentrated stock solutions obtained were diluted with an aqueous mixture containing acetone, water, isopropyl alcohol, DMSO, Atplus 411F crop oil concentrate, and Triton X-155 surfactant in a 48.5:39:10:1.5:1.0:0.02 v/v ratio to obtain spray solutions of known concentration. The solutions containing the highest concentration to be tested were prepared by diluting 2 mL aliquots of the stock solution with 13 mL of the mixture and lower concentrations were prepared by serial dilution of the stock solution. Approximately 1.5 mL aliquots of each solution of known concentration were sprayed evenly onto each of the test plant pots using a DeVilbiss atomizer driven by compressed air pressure of 2 to 4 psi ([…]) to obtain thorough coverage of each plant. Control plants were sprayed in the same manner with the aqueous mixture. In this test an application rate of 1 ppm results in the application of approximately 1 g/Ha.
(§3) The treated plants and control plants were placed in a greenhouse as described above and watered by sub-irrigation to prevent wash-off of the test compounds. After 2 weeks the condition of the test plants as compared with that of the untreated plants was determined visually and scored on a scale of 0 to 100 percent where 0 corresponds to no injury and 100 corresponds to complete kill.

[2] = system: chickweed (Stellaria media); test: Postemergence herbicidal activity; details: Table 1, visual, after 2 weeks
Experimental: as §1, §2, §3

[3] = system: wild buckwheat (Polygonum convolvulus); test: Postemergence herbicidal activity; details: Table 1, visual, after 2 weeks
Experimental: as §1, §2, §3

[4] = system: velvetleaf (Abutilon theophrasti); test: Preemergence herbicidal activity; details: Table 6 (headed Post-emergent; text: preemergence), after 3 weeks; for pest or weed control at 280 ppm: rate 280 ppm
Source text: (§4) Seeds of the desired test plant species were planted in a soil matrix prepared by mixing a loam soil (43 percent silt, 19 percent clay, and 38 percent sand, with a pH of about 8.1 and an organic matter content of bout 1.5 percent) and sand in a 70 to 30 ratio. The soil matrix was contained in plastic pots with a surface area of 113 square centimeters. When required to ensure good germination and healthy plants. a fungicide treatment and/or other chemical or physical treatment was applied.
(§5) A weighed amount, determined by the highest rate to be tested, of each test compound was placed in a 20 mL glass vial and was dissolved in 4 mL of a 97:3 v/v (volume/volume) mixture of acetone and dimethyl sulfoxide to obtain concentrated stock solutions. […] The stock solutions obtained were diluted with a 99.9:0.1 mixture of water and Tween® […] surfactant to obtain application solutions of known concentration. The solutions containing the highest concentration to be tested were prepared by diluting 2 mL aliquots of the stock solution with 15 mL of the mixture and lower concentrations were prepared by serial dilution of the stock solution. A 2.5 mL aliquot of each solution of known concentration was sprayed evenly onto the soil surface (113 sq. cm) of each seeded pot using a Cornwall 5.0 mL glass syringe fitted with a TeeJet TN-3 hollow cone nozzle to obtain thorough coverage of the soil in each pot. Control pots were sprayed in the same manner with the aqueous mixture.
(§6) The treated pots and control pots were placed in a greenhouse maintained with an approximate 15 hr photoperiod and temperatures of about 23-29° C. during the day and 22-28° C. during the night. Nutrients and water were added on a regular basis and supplemental lighting was provided with overhead metal halide 1000-Watt lamps as necessary. The water was added by top-irrigation. After 3 weeks the condition of the test plants that germinated and grew as compared with that of the untreated plants that germinated and grew was determined visually and scored on a scale of 0 to 100 percent where 0 corresponds to no injury and 100 corresponds to complete kill or no germination.

[5] = system: pigweed (Amaranthus retroflexus); test: Preemergence herbicidal activity; details: Table 6 (headed Post-emergent; text: preemergence), after 3 weeks; for pest or weed control at 280 ppm: rate 280 ppm
Source text: as §4, §5, §6

[6] = system: morningglory (Ipomoea hederacea); test: Preemergence herbicidal activity; details: Table 6 (headed Post-emergent; text: preemergence), after 3 weeks; for pest or weed control at 280 ppm: rate 280 ppm
Source text: as §4, §5, §6

[7] = Abutilon theophrasti, 504 h, read-out: % Control ABUTH
[8] = Amaranthus retroflexus, 504 h, read-out: % Control AMARE
[9] = Ipomoea, 504 h, read-out: % Control IPOHE
[10] = Xanthium strumarium, post-emergence, 336 h, rate 250 ppm, read-out: Post-emergent % Control XANST
[11] = Stellaria media, post-emergence, 336 h, rate 250 ppm, read-out: Post-emergent % Control STEME
[12] = Fallopia convolvulus, post-emergence, 336 h, rate 250 ppm, read-out: Post-emergent % Control POLCO

SMILES	Post-emergent % Control XANST ([1]; rate 125 ppm)	Post-emergent % Control STEME ([2]; rate 125 ppm)	Post-emergent % Control POLCO ([3]; rate 125 ppm)	% Control ABUTH ([4]; rate 560 ppm)	% Control AMARE ([5]; rate 560 ppm)	% Control IPOHE ([6]; rate 560 ppm)	Post-emergent % Control XANST ([1]; rate 250 ppm)	Post-emergent % Control STEME ([2]; rate 250 ppm)	Post-emergent % Control POLCO ([3]; rate 250 ppm)	further results
CCCCOCCOC(=O)c1nc(Cl)cc(N)c1Cl [Compound 10, butoxyethyl 4-amino-3,6-dichloropyridine-2-carboxylate]										pest or weed control at 125 ppm ([1]; Xanthium strumarium, post-emergence, 336 h, rate 125 ppm, read-out: Post-emergent % Control XANST): 90%; pest or weed control at 125 ppm ([2]; Stellaria media, post-emergence, 336 h, rate 125 ppm, read-out: Post-emergent % Control STEME): 50%; pest or weed control at 125 ppm ([3]; Fallopia convolvulus, post-emergence, 336 h, rate 125 ppm, read-out: Post-emergent % Control POLCO): 100%; pest or weed control at 280 ppm [4, 7]: 100%; pest or weed control at 280 ppm [5, 8]: 100%; pest or weed control at 280 ppm [6, 9]: 100%
COC(=O)c1nc(Cl)cc(NC(C)=O)c1Cl [Compound 12, Methyl N-acetyl 4-amino-3,6-dichloropyridine-2-carboxylate]	90%	30%	100%	95%	100%	100%				
Nc1c(F)c(Br)nc(C(=O)O)c1F [Compound 16, 4-Amino-3,5-difluoro-6-bromopyridine-2-carboxylic acid]										pest or weed control at 250 ppm [1, 10]: 60%; pest or weed control at 250 ppm [2, 11]: 30%; pest or weed control at 250 ppm [3, 12]: 70%; pest or weed control at 560 ppm ([4]; Abutilon theophrasti, 504 h, rate 560 ppm, read-out: % Control ABUTH): 0%; pest or weed control at 560 ppm ([5]; Amaranthus retroflexus, 504 h, rate 560 ppm, read-out: % Control AMARE): 70%; pest or weed control at 560 ppm ([6]; Ipomoea, 504 h, rate 560 ppm, read-out: % Control IPOHE): 80%
COC(=O)c1nc(Br)c(Br)c(N)c1Br [Compound 18, Methyl 4-amino-3,5,6-tribromopyridine-2-carboxylate]										pest or weed control at 250 ppm [1, 10]: 85%; pest or weed control at 250 ppm [2, 11]: 90%; pest or weed control at 250 ppm [3, 12]: 75%; pest or weed control at 280 ppm [4, 7]: 98%; pest or weed control at 280 ppm [5, 8]: 80%; pest or weed control at 280 ppm [6, 9]: 30%
Nc1c(Cl)c(C(=O)O)nc(Cl)c1Sc1ccccc1 [Compound 24, 4-Amino-3,6-dichloro-5-phenylthiopyridine-2-carboxylate]				50%	20%	30%	60%	50%	50%	
CC(C)Nc1cc(Cl)nc(C(=O)O)c1Cl [Compound 28, 4-N-isopropylamino-3,6-dichloropyridine-2-carboxylic acid]				100%	100%	100%	95%	90%	95%	
C=CCNc1cc(Cl)nc(C(=O)O)c1Cl [Compound 30, 4-N-allylamino-3,6-dichloropyridine-2-carboxylic acid]				95%	90%	85%	100%	80%	100%	
O=C(O)c1nc(Cl)cc(NCCO)c1Cl [Compound 31, 4-N-hydroxyethylamino-3,6-dichloropyridine-2-carboxylic acid]				95%	95%	100%	40%	30%	70%	
COCCNc1cc(Cl)nc(C(=O)O)c1Cl [Compound 32, 4-N-methoxyethylamino-3,6-dichloropyridine-2-carboxylic acid]				90%	70%	90%	80%	20%	100%	
CN(O)c1cc(Cl)nc(C(=O)O)c1Cl [Compound 34, 4-N-hydroxy-N-methyl-amino-3,6-dichloropyridine-2-carboxylic acid]	100%	70%	100%	100%	100%	95%				
CON(C)c1cc(Cl)nc(C(=O)O)c1Cl [Compound 35, 4-N-methoxy-N-methyl-3,6-dichloropyridine-2-carboxylic acid]	90%	60%	100%	90%	95%	85%				
O=C(O)c1nc(Cl)cc(-n2cccc2)c1Cl [Compound 37, 4-pyrrolo-3,6-Dichloropyridine-2-carboxylic acid]	90%	70%	90%	100%	100%	95%				
CN(C)C=Nc1cc(Cl)nc(C(=O)O)c1Cl [Compound 40, 4-N,N-Dimethylformamidino-3,6-dichloropyridine-2-carboxylic acid]				100%	100%	100%	100%	90%	100%	
